± gives the standard deviation of the averaged measurements.
System: A204
Test: relative viability vs DMSO control (72 h) (fraction); higher = more viable cells
Method in brief: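 After seeding at densities set for 80–90% confluence in 384-well plates, sarcoma cell lines waited 24 h before 2.5 µl of serially diluted compound was added. Source plates held 10 mM down to 0.0002 mM. Plates were incubated 72 h at 37 °C with 5% CO2, with 0.1% DMSO vehicle and a 5 µM positive control, and relative viability was taken from ATPLite as percent growth averaged over up to triplicate wells, with 1 set as full and 0 as none.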

| SMILES | relative viability (0.00017 µM) | relative viability (0.00051 µM) | relative viability (0.00152 µM) | relative viability (0.00457 µM) | relative viability (0.01372 µM) | relative viability (0.04115 µM) | relative viability (0.1235 µM) | relative viability (0.3704 µM) | relative viability (1.111 µM) | relative viability (3.333 µM) | relative viability (10 µM) | relative viability (2 pM) | relative viability (5 pM) | relative viability (15 pM) | relative viability (50 pM) | relative viability (0.00014 µM) | relative viability (0.00041 µM) | relative viability (0.0012 µM) | relative viability (0.0037 µM) | relative viability (0.011 µM) | relative viability (200 fM) | relative viability (600 fM) |
| --- | --- | --- | --- | --- | --- | --- | --- | --- | --- | --- | --- | --- | --- | --- | --- | --- | --- | --- | --- | --- | --- | --- |
| CC1(C)CNc2cc(NC(=O)c3cccnc3NCc3ccncc3)ccc21 [Motesanib] | 0.977 ± 0.038 | 1.01 ± 0.046 | 1.01 ± 0.037 | 0.995 ± 0.015 | 0.968 ± 0.025 | 0.895 ± 0.045 | 0.76 ± 0.059 | 0.524 ± 0.017 | 0.393 ± 0.0075 | 0.3783 ± 0.0025 | 0.312 ± 0.012 | – | – | – | – | – | – | – | – | – | – | – |
| C[C@@H](c1ccc2nccn2c1)n1nnc2ncc(-c3cnn(C)c3)nc21 [Volitinib] | 1.05 ± 0.014 | 1.08 ± 0.046 | 1.1 ± 0.031 | 1.08 ± 0.038 | 1.08 ± 0.033 | 1.07 ± 0.026 | 1.06 ± 0.031 | 1.06 ± 0.044 | 1.05 ± 0.042 | 0.962 ± 0.038 | 0.842 ± 0.072 | – | – | – | – | – | – | – | – | – | – | – |
| Cc1ccc(NC(=O)c2ccc(CN3CCN(C)CC3)cc2)cc1Nc1nc(-c2cccnc2)cs1 [Masitinib] | 1.01 ± 0.019 | 1.03 ± 0.039 | 1.06 ± 0.013 | 1.05 ± 0.065 | 1.09 ± 0.03 | 0.976 ± 0.033 | 0.772 ± 0.012 | 0.472 ± 0.011 | 0.303 ± 0.015 | 0.194 ± 0.015 | 0.0391 ± 0.0062 | – | – | – | – | – | – | – | – | – | – | – |
| C=CC(=O)Nc1cccc(Oc2nc(Nc3ccc(N4CCN(C)CC4)cc3)nc3ccsc23)c1 [Olmutinib] | 1.09 ± 0.028 | 1.05 ± 0.038 | 1.06 ± 0.019 | 1.06 ± 0.039 | 1.05 ± 0.031 | 1.05 ± 0.02 | 1.01 ± 0.03 | 1.03 ± 0.022 | 0.929 ± 0.054 | 0.568 ± 0.064 | 0.177 ± 0.031 | – | – | – | – | – | – | – | – | – | – | – |
| CC(C)(C)c1cc(NC(=O)Nc2ccc(-c3cn4c(n3)sc3cc(OCCN5CCOCC5)ccc34)cc2)no1 [Quizartinib] | 1.05 ± 0.035 | 1.08 ± 0.02 | 1.06 ± 0.032 | 1.08 ± 0.023 | 1.067 ± 0.0075 | 0.946 ± 0.039 | 0.752 ± 0.052 | 0.472 ± 0.011 | 0.42 ± 0.02 | 0.369 ± 0.032 | 0.396 ± 0.021 | – | – | – | – | – | – | – | – | – | – | – |
| CC(C)NC(=O)C1CCC(n2c(NC(=O)c3ccc(F)cc3)nc3ccc(CN4CCC(C(C)(C)O)CC4)cc32)CC1 (centres undefined) [Belizatinib] | 1.1 ± 0.019 | 1.11 ± 0.056 | 1.11 ± 0.034 | 1.08 ± 0.02 | 1.092 ± 0.0066 | 1.09 ± 0.044 | 1.08 ± 0.026 | 1.05 ± 0.029 | 0.984 ± 0.086 | 0.727 ± 0.019 | 0.361 ± 0.069 | – | – | – | – | – | – | – | – | – | – | – |
| Cc1ccc(F)c(NC(=O)Nc2ccc(-c3cccc4[nH]nc(N)c34)cc2)c1 [Linifanib] | 1.07 ± 0.037 | 1.11 ± 0.047 | 1.08 ± 0.037 | 1.073 ± 0.0063 | 1.06 ± 0.02 | 0.973 ± 0.13 | 0.659 ± 0.03 | 0.469 ± 0.066 | 0.435 ± 0.034 | 0.414 ± 0.032 | 0.439 ± 0.01 | – | – | – | – | – | – | – | – | – | – | – |
| Cc1nc(NC(=O)N2CCC[C@H]2C(N)=O)sc1-c1ccnc(C(C)(C)C(F)(F)F)c1 [Alpelisib] | 0.942 ± 0.046 | 0.988 ± 0.037 | 1 ± 0.02 | 1.02 ± 0.06 | 0.983 ± 0.019 | 0.925 ± 0.035 | 0.895 ± 0.038 | 0.7675 ± 0.0064 | 0.651 ± 0.027 | 0.557 ± 0.052 | 0.414 ± 0.03 | – | – | – | – | – | – | – | – | – | – | – |
| C[C@]1(O)C[C@@H](c2nc(-c3ccc4ccc(-c5ccccc5)nc4c3)c3c(N)nccn32)C1 [Linsitinib] | 1.08 ± 0.049 | 1.05 ± 0.058 | 1.05 ± 0.021 | 1.06 ± 0.05 | 1.03 ± 0.017 | 1.03 ± 0.048 | 1.04 ± 0.087 | 0.99 ± 0.077 | 0.907 ± 0.063 | 0.755 ± 0.097 | 0.476 ± 0.017 | – | – | – | – | – | – | – | – | – | – | – |
| C=CC(=O)N1CCC([C@@H]2CCNc3c(C(N)=O)c(-c4ccc(Oc5ccccc5)cc4)nn32)CC1 [Zanubrutinib] | 1.02 ± 0.029 | 0.991 ± 0.041 | 1 ± 0.046 | 1.02 ± 0.033 | 1.013 ± 0.0088 | 0.969 ± 0.019 | 1.02 ± 0.049 | 0.944 ± 0.084 | 0.897 ± 0.071 | 0.871 ± 0.023 | 0.764 ± 0.03 | – | – | – | – | – | – | – | – | – | – | – |
| CCc1cc2c(cc1N1CCC(N3CCOCC3)CC1)C(C)(C)c1[nH]c3cc(C#N)ccc3c1C2=O [Alectinib] | 1.09 ± 0.015 | 1.07 ± 0.028 | 1.09 ± 0.023 | 1.1 ± 0.036 | 1.08 ± 0.012 | 1.09 ± 0.0079 | 1.13 ± 0.021 | 1.13 ± 0.014 | 1.104 ± 0.005 | 1.14 ± 0.036 | 1.14 ± 0.07 | – | – | – | – | – | – | – | – | – | – | – |
| C[C@@H]1CCN(C(=O)CC#N)C[C@@H]1N(C)c1ncnc2[nH]ccc12 [Tofacitinib] | 1.09 ± 0.031 | 1.09 ± 0.014 | 1.04 ± 0.046 | 1.08 ± 0.023 | 1.06 ± 0.064 | 1.04 ± 0.094 | 1.02 ± 0.052 | 1.06 ± 0.017 | 1.04 ± 0.057 | 1.02 ± 0.014 | 0.99 ± 0.033 | – | – | – | – | – | – | – | – | – | – | – |
| CC[C@H](Nc1ncnc2[nH]cnc12)c1nc2cccc(F)c2c(=O)n1-c1ccccc1 [Idelalisib] | 1.08 ± 0.023 | 1.1 ± 0.043 | 1.1 ± 0.032 | 1.1 ± 0.046 | 1.07 ± 0.081 | 1.06 ± 0.041 | 1.03 ± 0.023 | 1.02 ± 0.021 | 0.973 ± 0.067 | 0.835 ± 0.015 | 0.61 ± 0.033 | – | – | – | – | – | – | – | – | – | – | – |
| COc1cc2nccc(Oc3ccc(NC(=O)Nc4cc(C)on4)c(Cl)c3)c2cc1OC [Tivozanib] | 1.1 ± 0.05 | 1.07 ± 0.048 | 1.09 ± 0.032 | 1.08 ± 0.026 | 0.998 ± 0.063 | 0.712 ± 0.021 | 0.504 ± 0.038 | 0.438 ± 0.025 | 0.418 ± 0.029 | 0.348 ± 0.0075 | 0.228 ± 0.02 | – | – | – | – | – | – | – | – | – | – | – |
| COc1cc2c(cc1O)CCN[C@]21CS[C@@H]2c3c(OC(C)=O)c(C)c4c(c3[C@H](COC1=O)N1[C@@H]2[C@H]2c3c(cc(C)c(OC)c3O)C[C@@H]([C@@H]1O)N2C)OCO4 [Trabectedin] | – | – | – | – | – | – | – | – | – | – | – | 1.08 ± 0.026 | 1.06 ± 0.03 | 1.05 ± 0.056 | 0.979 ± 0.02 | 0.84 ± 0.031 | 0.399 ± 0.17 | 0.156 ± 0.13 | 0.215 ± 0.0065 | 0.202 ± 0.014 | 1.07 ± 0.03 | 1.1 ± 0.043 |
| N#CC[C@H](C1CCCC1)n1cc(-c2ncnc3[nH]ccc23)cn1 [Ruxolitinib] | 1.02 ± 0.015 | 1.03 ± 0.018 | 1.02 ± 0.049 | 1.02 ± 0.027 | 1.01 ± 0.026 | 1.01 ± 0.005 | 1.008 ± 0.0097 | 0.983 ± 0.031 | 0.96 ± 0.083 | 0.789 ± 0.053 | 0.655 ± 0.05 | – | – | – | – | – | – | – | – | – | – | – |
| Cc1cc(C)c(/C=C2\C(=O)Nc3ccccc32)[nH]1 [Semaxanib] | 1.02 ± 0.067 | 1.03 ± 0.021 | 0.964 ± 0.055 | 0.966 ± 0.067 | 0.977 ± 0.052 | 0.925 ± 0.075 | 0.883 ± 0.015 | 0.852 ± 0.032 | 0.823 ± 0.041 | 0.568 ± 0.043 | 0.33 ± 0.032 | – | – | – | – | – | – | – | – | – | – | – |
| O=C(Cc1ccc(-c2ccc(OCCN3CCOCC3)cc2)cn1)NCc1ccccc1 [KX2-391] | 1.09 ± 0.031 | 1.07 ± 0.042 | 1.11 ± 0.04 | 1.05 ± 0.033 | 1.04 ± 0.084 | 0.894 ± 0.072 | 0.458 ± 0.064 | 0.36 ± 0.032 | 0.341 ± 0.014 | 0.31 ± 0.02 | 0.266 ± 0.0096 | – | – | – | – | – | – | – | – | – | – | – |
| COc1cc2c(Oc3ccc4[nH]c(C)cc4c3F)ncnc2cc1OCCCN1CCCC1 [Cediranib] | 1.086 ± 0.0095 | 1.06 ± 0.017 | 1.08 ± 0.064 | 1.09 ± 0.024 | 0.984 ± 0.051 | 0.882 ± 0.09 | 0.457 ± 0.0087 | 0.336 ± 0.0094 | 0.251 ± 0.027 | 0.182 ± 0.0051 | 0.00917 ± 0.0011 | – | – | – | – | – | – | – | – | – | – | – |

Source: the supplement of paper PMC10883282
